# Several values for one entry are separate records, joined by “and”; a condition that tells them apart may be missing. Equal values may be shown once. Read-outs that look alike come from different tables or passages of the source.
# Tests used:
# [1] = tested on: voltage-gated sodium channels; assay type: cell-based, human
# Na^+ channels = assay type: cell-based, human; conditions: read-out: Tetrodotoxin IC50
# [2] = Method: The amplitude and rate of the observed depolarization was reduced by the removal of extracellular Na^+ concentration. […] This reduction effect was more pronounced in the absence of extracellular Na^+ and in cells that were not pre-incubated with the compound.
compound,measurement,setting,value
Clc1ccccc1C(c1ccccc1)(c1ccccc1)n1ccnc1 [Clotrimazole],Rate (% change/ s),"[1]; 1 μM, 30 min pre-incubation, 8 V train of 750 μs pulses, 8 pulses per s for 3 s",0.124 ± 0.024 % change/ s
same,Amplitude (% max),"[1]; 1 μM, 30 min pre-incubation, 8 V train, % of maximal depolarization with 50 mM KCl",33.92 ± 0.320 % max
COc1ccc(CCN(C)CCCC(C#N)(c2ccc(OC)c(OC)c2)C(C)C)cc1OC (stereo not shown) [Verapamil],Amplitude (% max),[1],32.84 ± 0.330 % max
same,Rate (% change/ s),[1],0.141 ± 0.014 % change/ s
Charybdotoxin,Rate (% change/ s),"[1]; 100 nM, 30 min pre-incubation, 8 V train of 750 μs pulses, 8 pulses per s for 3 s",0.115 ± 0.013 % change/ s
same,Amplitude (% max),"[1]; 100 nM, 30 min pre-incubation, 8 V train, % of maximal depolarization with 50 mM KCl",34.09 ± 0.326 % max
"NC1=N[C@H](O)[C@H]2[C@H]3O[C@]4(O)O[C@@H]([C@@H](O)[C@@]2(N1)[C@@H]4O)[C@]3(O)CO [TTX, tetrodotoxin]",IC50,Na^+ channels,9.5 nM and 6.69 nM
same,Amplitude (% max),[1],24.260 ± 0.290 % max
same,Rate (% change/ s),[1],0.001 ± 0.001 % change/ s
same,effect on voltage-induced depolarizations,[1],blocked the depolarizations in a dose-dependent manner
same,voltage-induced changes in plasma membrane potential,[1],completely abolished
same,IC50,[1]; read-out: IC50 for block of voltage-induced depolarizations,~9 nM
COc1cc(N)c(Cl)cc1C(=O)NC1CCN(CCCOc2ccc(F)cc2)CC1OC (stereo not shown) [cisapride],KCl-induced plasma membrane depolarization,[2],reduced

# — patent US20040115614A1, “Electrophysiology assay methods” (priority 2002, published 2004)
